# Results from PMC9241695, “Selective Metal Chelation by a Thiosemicarbazone Derivative Interferes with Mitochondrial Respiration and Ribosome Biogenesis in Candida albicans” (Microbiology Spectrum, 2022).
# Read-outs that look alike come from different tables or passages of the source.
# Columns and labels:
# [1] = system: C. albicans SC5314; assay: Antifungal susceptibility testing, microbroth dilution MIC; type: cell-based; conditions: Candida albicans
# Source text: (§1) Compound library. The thiosemicarbazone derivatives Triapine and COTI-2 were purchased from Med Chem Express (MCE). The other 87 thiosemicarbazones used in this study were previously synthesized by our collaborators (1, 2). Their structures are shown in Table 1 and Table S1 to help the reader clearly understand the relationship between structure and activity.
# (§2) Strains and culture conditions. Clinically derived C. albicans isolates, including G5, F5, and Gu5, were kindly provided by Professor Joachim Morschhäuser of the University of Würzburg. Other clinical C. albicans isolates were kindly donated by Professor Qingguo Qi of Shandong University and Qianfoshan Hospital of Shandong Province Other Candida strains were obtained from Jinan Central Hospital.
# (§3) The zap1 mutant and its complemented strain were kindly provided by Professor Aaron P. Mitchell of Carnegie Mellon University (3). The C. neoformans strains used in this study was kindly donated by Professor Guojian Liao of Southwest University and A. fumigatus strain used in this study was provided by Professor Ling Lu of Nanjing Normal University. Before in vitro and in vivo experiments, all C. albicans strains were grown on YPD agar plates. After culturing at 30°C for 24 h, colonies of each strain were cultured in liquid YPD medium at 30°C with continuous shaking […]
# (§4) Antifungal susceptibility testing. To determine in vitro antifungal activities, the microbroth dilution method was carried out in RPMI1640 medium according to the guidelines of the Clinical and Laboratory Standards Institute (4, 5). The initial concentration in RPMI1640 medium was 1 × 10^3 CFU/mL for the C. albicans and C. neoformans suspensions but 1 × 10^4 CFU/mL for A. fumigatus. The range of final drug concentrations was 0.0156–64 μg/mL. The plates were incubated at35°C for 24 […]
# (§5) h (for C. albicans, C. krusei, C. tropicalis, C. parapsilosis) or 48 h (for C. neoformans, A. fumigatus). The MIC was determined based on visible growth inhibition compared with the control. All experiments were performed in duplicate. […]
# [2] = system: C. albicans SC5314; assay: Respiratory activity by CTC staining; type: cell-based, Candida albicans; conditions: 6 h, 1 mM CTC; 19ak 0.125-1 μg/mL, TPEN 0.05-0.4 μg/mL
# Method: (§6) h (for C. albicans, C. krusei, C. tropicalis, C. parapsilosis) or 48 h (for C. neoformans, A. fumigatus). The MIC was determined based on visible growth inhibition compared with the control. All experiments were performed in duplicate.
# Cytotoxicity testing. The cell lines HK2 and 16HBE were used to evaluate the cytotoxicity of 19ak, 19k and 19t. Cells in DMEM containing 10% fetal bovine serum (Gibco) were seeded in 96-well tissue culture plates at a cell density of 1 × 10^4 cells/mL and incubated for 24 h to allow adhesion. The supernatant was then replaced with fresh DMEM containing various concentrations of 19ak, 19k and 19t. […]
# The effects of the compounds on cell proliferation were detected by measuring the absorbance at 570 nm in a microplate reader (BioTek, VT, USA). […]
# the fluorescent complex […] (CTF) is commonly used to indicate the intensity of microbial respiration. C. albicans SC5314 treated with 19ak was stained with 1 mM CTC for 30 min, followed by flow cytometry analysis of respiratory activity based on fluorescence intensity. Images of cells were obtained using a fluorescence microscope (IX71, Olympus, Tokyo, Japan). […] After an additional 2 h of incubation, OD450 in each well was detected with a microplate reader. […]
# Mitochondrial complex activity was expressed as nmol/min/mg protein. […]
# [3] = system: C. albicans SC5314; assay: qPCR of genes associated with ribosome biogenesis; type: cell-based, Candida albicans; conditions: CPX 0.5 or 2 μg/mL 8 h; DFO 64 µg/mL 6 h; TPEN 0.05 or 0.2 μg/mL 6 h
# Method: Determination of SOD activity. SOD activity was measured using the Superoxide Dismutase Activity Assay Kit (Njjcbio, Nanjing, China) following the manufacturer's instructions. An overnight culture of C. albicans SC5314 was adjusted to 1 × 10^7 cells/mL with RPMI1640 medium and treated with 19ak at a final concentration of 0, 0.125, 0.25, 0.5, or 1 μg/mL for 6 h. After collection by centrifugation, the cells were broken by glass beads in extraction buffer and centrifuged at 4°C. The absorbance of the supernatant of each sample was measured with a microplate reader at450 nm.
# Determination of catalase (CAT) activity. CAT activity was measured by using a Catalase Assay Kit (Solarbio, Beijing, China) following the manufacturer's instructions. An overnight culture of C. albicans SC5314 was adjusted to 1 × 10^6 cells/mL with RPMI1640 medium and treated as described above for SOD activity.
# The decomposition of H2O2 is directly accompanied by a decrease in absorbance at 240 nm, and the difference in absorbance per unit time (ΔA240) is a measure of […]
# Quantitative real-time polymerase chain reaction (qPCR) analysis. C. albicans SC5314 cells (1 × 10^6 cells/mL) were incubated with or without 19ak (0.5,2 […]
# Total RNA was extracted using the hot phenol method, and the RNA quality was analyzed using a spectrophotometer (Eppendorf, Hamburg, Germany). The RNA was converted to cDNA using a cDNA Reverse
# Transcription kit (Accurate Biotechnology, Hunan, China). PCR detection based on SYBR Green was performed on an Eppendorf real-time PCR system (Eppendorf, […]
# Drug resistance study. Drug resistance studies were carried out by repeatedly treating C. albicans with an antifungal agent followed by MIC determination using […]
# [4] = system: A. fumigatus AF293; assay: Antifungal susceptibility testing, microbroth dilution MIC; type: cell-based; conditions: Aspergillus fumigatus, AF293; standard strain of A. fumigatus; 48 h; read-out: MIC (μg/mL) against fungi AF293
# Source text: as §1, §2
# (§7) The zap1 mutant and its complemented strain were kindly provided by Professor Aaron P. Mitchell of Carnegie Mellon University (3). The C. neoformans strains used in this study was kindly donated by Professor Guojian Liao of Southwest University and A. fumigatus strain used in this study was provided by Professor Ling Lu of Nanjing Normal University. […]
# as §4, §5
# [5] = system: C. neoformans H99; assay: as above; type: cell-based; conditions: Cryptococcus neoformans, H99; C. neoformans wild-type strain; 48 h; read-out: MIC (μg/mL) against fungi H99
# Source text: as §1, §2, §7, §4, §5
# [6] = system: C. albicans G5; assay: microbe, parasite or virus in culture; type: cell-based; conditions: Candida albicans, G5
# Source text: as §1, §2, §3, §4, §5
# [7] = system: C. albicans Gu5; assay: microbe, parasite or virus in culture; type: cell-based; conditions: Candida albicans, GU5
# Source text: as §1, §2, §3, §4, §5
# [8] = system: A. fumigatus 1161; assay: Microbroth dilution MIC80; type: cell-based; conditions: Aspergillus fumigatus, 1161
# Source text: as §1, §2, §3, §4, §5
# [9] = system: C. albicans 11e; assay: Microbroth dilution MIC80; type: cell-based; conditions: Candida albicans, 11E
# Source text: as §1, §2, §3, §4, §5
# [10] = system: C. albicans 11f; assay: Microbroth dilution MIC80; type: cell-based; conditions: Candida albicans, 11F
# Source text: as §1, §2, §3, §4, §5
# [11] = system: C. albicans 24g; assay: Microbroth dilution MIC80; type: cell-based; conditions: Candida albicans, 24G
# Source text: as §1, §2, §3, §4, §5
# [12] = system: C. albicans 28A; assay: Microbroth dilution MIC80; type: cell-based; conditions: Candida albicans, 28A
# Source text: as §1, §2, §3, §4, §5
# [13] = system: C. albicans 28D; assay: Microbroth dilution MIC80; type: cell-based; conditions: Candida albicans, 28D
# Source text: as §1, §2, §3, §4, §5
# [14] = system: C. albicans 28I; assay: Microbroth dilution MIC80; type: cell-based; conditions: Candida albicans, 28I
# Source text: as §1, §2, §3, §4, §5
# [15] = system: C. albicans CA1; assay: Microbroth dilution MIC80; type: cell-based; conditions: Candida albicans, CA1
# Source text: as §1, §2, §3, §4, §5
# [16] = system: C. albicans CA3; assay: Microbroth dilution MIC80; type: cell-based; conditions: Candida albicans, CA3
# Source text: as §1, §2, §3, §4, §5
# [17] = system: C. albicans CA4; assay: Microbroth dilution MIC80; type: cell-based; conditions: Candida albicans, CA4
# Source text: as §1, §2, §3, §4, §5
# [18] = system: C. albicans DSY654; assay: Microbroth dilution MIC80; type: cell-based; conditions: Candida albicans
# Source text: as §1, §2, §3, §4, §5
# [19] = system: C. albicans F5; assay: Microbroth dilution MIC80; type: cell-based; conditions: Candida albicans, F5
# Source text: as §1, §2, §3, §4, §5
# [20] = system: C. albicans YEM13; assay: Microbroth dilution MIC80; type: cell-based; conditions: Candida albicans
# Source text: as §1, §2, §3, §4, §5
# [21] = system: C. albicans YEM15; assay: Microbroth dilution MIC80; type: cell-based; conditions: Candida albicans, YEM15
# Source text: as §1, §2, §3, §4, §5
# [22] = system: C. neoformans 108; assay: Microbroth dilution MIC80; type: cell-based; conditions: Cryptococcus neoformans, 108
# Source text: as §1, §2, §3, §4, §5
# [23] = system: C. tropicalis CT2; assay: Microbroth dilution MIC80; type: cell-based; conditions: Candida tropicalis, CT2
# Source text: as §1, §2, §3, §4, §5
# [24] = system: C. krusei CK1; assay: Microbroth dilution MIC80; type: cell-based, Candida krusei; conditions: Pichia kudriavzevii, CK1
# Source text: as §1, §2, §3, §4, §5
# [25] = system: C. parapsilosis CP001; assay: Microbroth dilution MIC80; type: cell-based, Candida parapsilosis; conditions: Lodderomyces parapsilosis, CP001
# Source text: as §1, §2, §3, §4, §5
# [26] = Cytotoxicity testing (MTT); type: cell-based, human; conditions: human, 48 h, MTT
# Method: as §6
# (§8) Cytotoxicity testing. The cell lines HK2 and 16HBE were used to evaluate the cytotoxicity of 19ak, 19k and 19t. Cells in DMEM containing 10% fetal bovine serum (Gibco) were seeded in 96-well tissue culture plates at a cell density of 1 × 10^4 cells/mL and incubated for 24 h to allow adhesion. The supernatant was then replaced with fresh DMEM containing various concentrations of 19ak, 19k and 19t. The plates were subsequently incubated for an additional 48 h at 37°C with 5% CO2, followed by the addition of 10 μL of MTT solution to each well and incubation at 37°C for 4 h.
# (§9) The effects of the compounds on cell proliferation were detected by measuring the absorbance at 570 nm in a microplate reader (BioTek, VT, USA). Three independent experiments were conducted. […]
# [27] = system: human bronchial epithelial cell line 16HBE; assay: Cytotoxicity testing (MTT); type: cell-based; conditions: ratio of IC50 against 16HBE to MIC80 against C. albicans SC5314
# Method: as §6, §8, §9
# [28] = system: human renal epithelial cell line HK2; assay: Cytotoxicity testing (MTT); type: cell-based; conditions: ratio of IC50 against HK2 to MIC80 against C. albicans SC5314
# Method: as §6, §8, §9
# [29] = Cytotoxicity testing (MTT); type: cell-based, human; conditions: human, HepG2 cells (hepatocellular carcinoma cell line)
# [30] = system: human hepatocellular carcinoma cell line HepG2; assay: Cytotoxicity testing (MTT); type: cell-based; conditions: ratio of IC50 against HepG2 to MIC80 against C. albicans SC5314
# [31] = system: C. albicans SC5314; assay: Minimal fungicidal concentration (MFC); type: cell-based; conditions: Candida albicans, read-out: MFC against C. albicans SC5314
structure (smiles),measurement,setting,value
"c1ccc(CN(CCN(Cc2ccccn2)Cc2ccccn2)Cc2ccccn2)nc1 [TPEN, N,N,N′,N′-tetrakis (2-pyridylmethyl) ethylenediamine, reference compound]",MIC,"[1]; SC5314, read-out: MIC against C. albicans SC5314 (Fig. S2 legend)",0.05 µg/mL
same,Mitochondrial respiratory activity (CTC fluorescence intensity),[2],failed to observe reduced mitochondrial respiration
same,Expression of genes associated with ribosome biogenesis (qPCR),[3],downregulated
S=C(N/N=C/c1ccc(Br)cn1)Nc1ccc(Br)cc1 [Compound 19k],MIC,"[1]; SC5314, C. albicans wild-type strain, RPMI1640, 35°C, 24 h, read-out: MIC (μg/mL) against fungi SC5314",1 µg/mL
same,MIC,[4],8 µg/mL
same,MIC,[5],0.031 µg/mL
same,MIC80,[6],4 µg/mL
same,MIC80,[7],2 µg/mL
same,MIC80,[8],0.5 µg/mL
same,MIC80,[9],2 µg/mL
same,MIC80,[10],2 µg/mL
same,MIC80,[11],1 µg/mL
same,MIC80,[12],2 µg/mL
same,MIC80,[13],1 µg/mL
same,MIC80,[14],1 µg/mL
same,MIC80,[15],1 µg/mL
same,MIC80,[16],1 µg/mL
same,MIC80,[17],0.5 µg/mL
same,MIC80,[18],1 µg/mL
same,MIC80,[19],1 µg/mL
same,MIC80,[20],2 µg/mL
same,MIC80,[21],2 µg/mL
same,MIC80,[22],0.031 µg/mL
same,MIC80,[23],2 µg/mL
same,MIC80,[24],4 µg/mL
same,MIC80,[25],2 µg/mL
same,IC50 at 48 h,"[26]; 16HBE cells (bronchial epithelial cell line), 16HBE cells",36.4 µg/mL
same,IC50 at 48 h,"[26]; HK2 cells (renal epithelial cell line), HK2 cells",63.9 µg/mL
same,Selectivity index 16HBE,[27],36.43
same,Selectivity index HK2,[28],63.88
same,IC50,[29],28 µg/mL
same,Selectivity index HepG2,[30],28
same,MFC,[31],> 64 µg/mL
